Where “and” joins values, the source holds several entries; their conditions need not be identical. Equal values may be shown once. Entries after “also recorded” stand apart in the source; their conditions may differ. Read-outs that look alike come from different tables or passages of the source.
How the values were obtained:
Assay type in all cases: cell-based, human
COLO 205 = experiment: NCI60 antitumor screening
U251 = experiment: NCI60 antitumor screening
SNB-19 = experiment: NCI60 antitumor screening
NCI/ADR-RES = experiment: NCI60 antitumor screening
SR = experiment: NCI60 antitumor screening
EKVX = experiment: NCI60 antitumor screening
renal cancer subpanel = experiment: NCI60 five-dose, subpanel VII
Source text: (§1) (2) The molar concentration of the compound responsible for total growth inhibition, also known as total growth inhibition (TGI).
(§2) Regarding subpanel selectivity toward certain cancer type, the method of determining a compound's selectivity index is to divide the full panel MG-MID (μM) value by each single subpanel. Values above six indicate high selectivity against the subpanel; moderate selectivity is denoted by values between three and six. Conversely, compounds are termed nonselective if their selectivity is less than three.[30,37]

OVCAR-4 = experiment: NCI60 antitumor screening
SK-MEL-2 = experiment: NCI60 antitumor screening; settings: Homo sapiens; 10 μM single dose; SK-MEL-2 (melanoma); read-out: growth inhibition percent (GI%)
HS 578T = experiment: NCI60 antitumor screening
NCI60 cell lines panel = experiment: NCI60 antitumor screening, full panel
In short: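 Percent growth inhibition (GI%) was recorded for each of the NCI60 lines, spanning leukaemia, lung, colon, CNS, melanoma, ovarian, renal, prostate and breast cancers, after exposure to compounds at one concentration, 10 μM.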

SF-268 = experiment: NCI60 antitumor screening
MCF7 = experiment: NCI60 antitumor screening
ACHN = experiment: NCI60 antitumor screening
MOLT-4 = experiment: NCI60 antitumor screening
SF-295 = experiment: NCI60 antitumor screening
SNB-75 = experiment: NCI60 antitumor screening; settings: Homo sapiens; 10 μM single dose; SNB-75 (CNS cancer); read-out: growth inhibition percent (GI%)
MDA-MB-231/ATCC = experiment: NCI60 antitumor screening; settings: Homo sapiens; 10 μM single dose; MDA-MB-231/ATCC (breast cancer); read-out: growth inhibition percent (GI%)
ovarian cancer subpanel = experiment: NCI60 five-dose, subpanel VI
Source text: as §1, §2

KM12 = experiment: NCI60 antitumor screening
SK-OV-3 = experiment: NCI60 antitumor screening
HCC-2998 = experiment: NCI60 antitumor screening
BT-549 = experiment: NCI60 antitumor screening
NCI-H460 = experiment: NCI60 antitumor screening
OVCAR-5 = experiment: NCI60 antitumor screening
[1] = full panel MG-MID / subpanel VII
[2] = Homo sapiens, OVCAR-4, five-dose
[3] = full panel MG-MID / subpanel VI

## N#Cc1c(-c2ccc(F)cc2)nc(SCc2ccccc2)nc1N1CCNCC1 [4e, 2-(Benzylthio)-4-(4-fluorophenyl)-6-(piperazin-1-yl) pyrimidine-5-carbonitrile]
COLO 205; Homo sapiens, COLO 205
  IC50: 1.66 µM
COLO 205; Homo sapiens, COLO 205, five-dose
  GI50: 1.66 µM
COLO 205; Homo sapiens, COLO 205, five-dose, read-out: LC50 (the source's name)
  CC50: 6.04 µM
COLO 205; Homo sapiens, 10 μM single dose, COLO 205 (colon cancer), read-out: growth inhibition percent (GI%)
  inhibition at 10 µM: > 100%
COLO 205; five-dose
  TGI: 3.17 µM
U251; Homo sapiens, U-251, 10 μM single dose, U251 (CNS cancer), read-out: growth inhibition percent (GI%)
  inhibition at 10 µM: > 100%
U251; Homo sapiens, U-251, five-dose
  GI50: 4.36 µM
U251; Homo sapiens, U-251, five-dose, read-out: LC50 (the source's name)
  CC50: 44.6 µM
U251; five-dose
  TGI: 16.10 µM
SNB-19; Homo sapiens, SNB-19, five-dose
  GI50: 14.2 µM
SNB-19; Homo sapiens, SNB-19, five-dose, read-out: LC50 (the source's name)
  CC50: 60.6 µM
SNB-19; Homo sapiens, 10 μM single dose, SNB-19 (CNS cancer), read-out: growth inhibition percent (GI%)
  inhibition at 10 µM: > 100%
SNB-19; five-dose
  TGI: 29.30 µM
NCI/ADR-RES; Homo sapiens, NCI/ADR-RES, five-dose
  GI50: 11.7 µM
NCI/ADR-RES; Homo sapiens, NCI/ADR-RES, five-dose, read-out: LC50 (the source's name)
  CC50: 64.4 µM
NCI/ADR-RES; Homo sapiens, 10 μM single dose, NCI/ADR-RES (ovarian cancer), read-out: growth inhibition percent (GI%)
  inhibition at 10 µM: > 100%
NCI/ADR-RES; five-dose
  TGI: 27.40 µM
SR; Homo sapiens, SR, five-dose
  GI50: 1.92 µM
SR; Homo sapiens, SR, five-dose, read-out: LC50 (the source's name)
  CC50: 13.8 µM
SR; Homo sapiens, 10 μM single dose, SR (leukaemia), read-out: growth inhibition percent (GI%)
  inhibition at 10 µM: > 100%
SR; five-dose
  TGI: 4.61 µM
EKVX; Homo sapiens, EKVX, five-dose
  GI50: 12 µM
  LC50: 51 µM
EKVX; Homo sapiens, 10 μM single dose, EKVX (non-small cell lung cancer), read-out: growth inhibition percent (GI%)
  inhibition at 10 µM: > 100%
EKVX; five-dose
  TGI: 24.80 µM
Renal cancer subpanel; Homo sapiens, subpanel VII, read-out: MG-MID (GI50)
  GI50: 12.2 µM
Renal cancer subpanel; [1]
  Selectivity index (GI50): 0.87
  Selectivity index (TGI): 0.92
Renal cancer subpanel; subpanel VII
  MG-MID (TGI): 25.75 µM
OVCAR-4; [2]
  GI50: 15.7 µM
  LC50 (lethal concentration, 50% cell kill): 74.7 µM
OVCAR-4; Homo sapiens, 10 μM single dose, OVCAR-4 (ovarian cancer), read-out: growth inhibition percent (GI%)
  inhibition at 10 µM: > 100%
OVCAR-4; five-dose
  TGI: 34.20 µM
SK-MEL-2
  inhibition at 10 µM: > 100%
HS 578T; Homo sapiens, Hs-578T, five-dose
  GI50: 14.1 µM
HS 578T; Homo sapiens, Hs-578T, five-dose, read-out: LC50 (the source's name)
  CC50: 72.7 µM
HS 578T; Homo sapiens, 10 μM single dose, HS 578T (breast cancer), read-out: growth inhibition percent (GI%)
  inhibition at 10 µM: > 100%
HS 578T; five-dose
  TGI: 32.00 µM
NCI60 cell lines panel; 10 μM
  One-dose activity over the NCI60 panel: lethal effect to all cancer subpanels; also recorded: Lethal to all NCI60 cell lines
NCI60 cell lines panel; Homo sapiens, 10 μM single dose, mean over NCI60 cell lines, read-out: Mean growth inhibition percent (GI%)
  inhibition at 10 µM: > 100%
NCI60 cell lines panel; Homo sapiens, average of all cell lines, read-out: Full panel MG-MID (GI50)
  GI50: 10.7 µM
NCI60 cell lines panel; Homo sapiens, five-dose, read-out: GI50 range, leukemia and colon cancer cell lines
  GI50: 1.77 to 17.1 µM
NCI60 cell lines panel; Homo sapiens, five-dose, read-out: LC50 range over examined cell lines
  CC50: 5 to 69 µM
NCI60 cell lines panel; average of all cell lines
  Full panel MG-MID (TGI): 23.60 μM and 23.60 ^e μM
SF-268; Homo sapiens, SF-268, five-dose
  GI50: 12.9 µM
SF-268; Homo sapiens, SF-268, five-dose, read-out: LC50 (the source's name)
  CC50: 65.4 µM
SF-268; Homo sapiens, 10 μM single dose, SF-268 (CNS cancer), read-out: growth inhibition percent (GI%)
  inhibition at 10 µM: > 100%
SF-268; five-dose
  TGI: 29.10 µM
MCF7; Homo sapiens, MCF7, five-dose
  GI50: 3.94 µM
MCF7; Homo sapiens, MCF7, five-dose, read-out: LC50 (the source's name)
  CC50: 44.8 µM
MCF7; Homo sapiens, 10 μM single dose, MCF7 (breast cancer), read-out: growth inhibition percent (GI%)
  inhibition at 10 µM: > 100%
MCF7; five-dose
  TGI: 15.30 µM
ACHN; Homo sapiens, ACHN, five-dose
  GI50: 14 µM
  LC50: 54 µM
ACHN; Homo sapiens, 10 μM single dose, ACHN (renal cancer), read-out: growth inhibition percent (GI%)
  inhibition at 10 µM: > 100%
ACHN; five-dose
  TGI: 27.50 µM
MOLT-4; Homo sapiens, MOLT-4, five-dose
  GI50: 7.07 µM
MOLT-4; Homo sapiens, MOLT-4, five-dose, read-out: LC50 (the source's name)
  CC50: 52.7 µM
MOLT-4; Homo sapiens, 10 μM single dose, MOLT-4 (leukaemia), read-out: growth inhibition percent (GI%)
  inhibition at 10 µM: > 100%
MOLT-4; five-dose
  TGI: 21.20 µM
SF-295; Homo sapiens, SF-295, five-dose
  GI50: 15.8 µM
SF-295; Homo sapiens, SF-295, five-dose, read-out: LC50 (the source's name)
  CC50: 57.5 µM
SF-295; Homo sapiens, 10 μM single dose, SF-295 (CNS cancer), read-out: growth inhibition percent (GI%)
  inhibition at 10 µM: > 100%
SF-295; five-dose
  TGI: 30.10 µM
SNB-75
  inhibition at 10 µM: > 100%
MDA-MB-231/ATCC
  inhibition at 10 µM: > 100%
Ovarian cancer subpanel; Homo sapiens, subpanel VI, read-out: MG-MID (GI50)
  GI50: 13.2 µM
Ovarian cancer subpanel; [3]
  Selectivity index (GI50): 0.81
  Selectivity index (TGI): 0.83
Ovarian cancer subpanel; subpanel VI
  MG-MID (TGI): 28.35 µM
KM12; Homo sapiens, KM12, five-dose
  GI50: 17.1 µM
KM12; Homo sapiens, KM12, five-dose, read-out: LC50 (the source's name)
  CC50: 63.1 µM
KM12; Homo sapiens, 10 μM single dose, KM12 (colon cancer), read-out: growth inhibition percent (GI%)
  inhibition at 10 µM: > 100%
KM12; five-dose
  TGI: 32.80 µM
SK-OV-3; Homo sapiens, SK-OV-3, five-dose
  GI50: 16 µM
SK-OV-3; Homo sapiens, SK-OV-3, five-dose, read-out: LC50 (the source's name)
  CC50: 54.6 µM
SK-OV-3; Homo sapiens, 10 μM single dose, SK-OV-3 (ovarian cancer), read-out: growth inhibition percent (GI%)
  inhibition at 10 µM: > 100%
SK-OV-3; five-dose
  TGI: 29.50 µM
HCC-2998; Homo sapiens, HCC 2998, five-dose
  GI50: 1.76 µM
HCC-2998; Homo sapiens, HCC 2998, five-dose, read-out: LC50 (the source's name)
  CC50: 5.89 µM
HCC-2998; Homo sapiens, 10 μM single dose, HCC-2998 (colon cancer), read-out: growth inhibition percent (GI%)
  inhibition at 10 µM: > 100%
HCC-2998; five-dose
  TGI: 3.22 µM
BT-549; Homo sapiens, BT-549, five-dose
  GI50: 13 µM
BT-549; Homo sapiens, BT-549, five-dose, read-out: LC50 (the source's name)
  CC50: 53.6 µM
BT-549; Homo sapiens, 10 μM single dose, BT-549 (breast cancer), read-out: growth inhibition percent (GI%)
  inhibition at 10 µM: > 100%
BT-549; five-dose
  TGI: 26.40 µM
NCI-H460; Homo sapiens, NCI-H460, five-dose
  GI50: 9.2 µM
NCI-H460; Homo sapiens, NCI-H460, five-dose, read-out: LC50 (the source's name)
  CC50: 53.9 µM
NCI-H460; Homo sapiens, 10 μM single dose, NCI-H460 (non-small cell lung cancer), read-out: growth inhibition percent (GI%)
  inhibition at 10 µM: > 100%
NCI-H460; five-dose
  TGI: 22.90 µM
OVCAR-5; Homo sapiens, OVCAR-5, five-dose
  GI50: 14.1 µM
OVCAR-5; Homo sapiens, OVCAR-5, five-dose, read-out: LC50 (the source's name)
  CC50: 54.2 µM
OVCAR-5; Homo sapiens, 10 μM single dose, OVCAR-5 (ovarian cancer), read-out: growth inhibition percent (GI%)
  inhibition at 10 µM: > 100%
OVCAR-5; five-dose
  TGI: 27.60 µM

From publication PMC10620772, “Design, synthesis, and biological evaluation of new pyrimidine-5-carbonitrile derivatives as novel anti-cancer, dual EGFR^WT/COX-2 inhibitors with docking studies” (RSC Advances, 2023)
